Laboratory results reported in ChEMBL document CHEMBL3102744, “Inhibition of tyrosinase activity by polyphenol compounds from Flemingia philippinensis roots” (Bioorg Med Chem, 2014).
pIC50, pKi: −log10 of the molar value. Activity calls are given as the source filed them. The rule behind the calls is not given here.

How the values were obtained:
[1] = molecular target: T1, Tyrosinase (Agaricus bisporus, UniProt O42713); assay: Competitive inhibition of mushroom tyrosinase using L-tyrosine as substrate preincubated for 10 mins with substrate followed by enzyme addition measured after 15 mins by Dixon plot analysis
T1 sequence (O42713 whole entry): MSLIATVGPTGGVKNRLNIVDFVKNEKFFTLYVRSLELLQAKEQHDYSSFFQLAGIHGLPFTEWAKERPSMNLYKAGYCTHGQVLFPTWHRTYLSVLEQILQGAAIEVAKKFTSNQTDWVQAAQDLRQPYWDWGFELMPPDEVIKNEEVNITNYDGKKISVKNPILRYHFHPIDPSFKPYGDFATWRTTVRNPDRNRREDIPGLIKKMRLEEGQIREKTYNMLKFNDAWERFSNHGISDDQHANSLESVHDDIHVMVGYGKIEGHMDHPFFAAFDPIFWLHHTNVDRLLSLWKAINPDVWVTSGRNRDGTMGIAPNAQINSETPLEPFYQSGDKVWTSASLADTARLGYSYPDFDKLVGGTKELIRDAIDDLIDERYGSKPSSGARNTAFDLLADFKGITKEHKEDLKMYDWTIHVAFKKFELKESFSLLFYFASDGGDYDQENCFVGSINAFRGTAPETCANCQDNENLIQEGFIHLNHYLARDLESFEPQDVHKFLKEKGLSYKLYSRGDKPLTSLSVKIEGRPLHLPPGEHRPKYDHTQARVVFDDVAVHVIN

[2] = molecular target: T1, Tyrosinase; assay: Inhibition of mushroom tyrosinase using L-DOPA as substrate preincubated for 10 mins with substrate followed by enzyme addition measured after 15 mins by spectrophotometry
[3] = molecular target: T1, Tyrosinase; assay: (§1) Inhibition of mushroom tyrosinase using L-tyrosine as substrate preincubated for 10 mins with substrate followed by enzyme addition measured after 15 mins by spectrophotometry
[4] = molecular target: T2, Tyrosinase (Agaricus bisporus) (UniProt O42713); assay: as §1
T2 sequence (whole entry): T1 sequence (O42713 whole entry)

[5] = molecular target: T1, Tyrosinase; assay: Competitive inhibition of mushroom tyrosinase using L-DOPA as substrate preincubated for 10 mins with substrate followed by enzyme addition measured after 15 mins by Dixon plot analysis
[6] = molecular target: T2, Tyrosinase (Agaricus bisporus); assay: Ratio of kojic acid IC50 to compound IC50 for mushroom tyrosinase using L-tyrosine as substrate
[7] = molecular target: T2, Tyrosinase (Agaricus bisporus); assay: Reversible inhibition of mushroom tyrosinase at 0.781 to 3.125 uM
[8] = molecular target: T2, Tyrosinase (Agaricus bisporus); assay: Inhibition of mushroom tyrosinase using L-tyrosine as substrate at 0.78 uM by spectrophotometry; conditions: TDE = time-dependent effect

Row | pKi [1] | pIC50 [2] | pIC50 [3] | inhibition [4] | pKi [5] | Ratio IC50 [6] | inhibition [7] | inhibition [8] | Compound
1 | 6.20 | 5.28 | 5.89 | Dose-dependent effect | 5.56 | 10 | – | – | COc1ccc(CCC(=O)c2c(O)c3c(c4c2OC(C(C)(C)O)C4)OC(C)(C)C=C3)cc1 (centres undefined)
2 | 5.27 | 4.08 | 4.95 | Dose-dependent effect | 4.44 | – | – | – | CC(C)=CCc1c2c(c(O)c3c1O[C@H](c1ccc(O)cc1)CC3=O)C=CC(C)(C)O2 [LUPINIFOLIN]
3 | 5.68 | 4.69 | 5.30 | Dose-dependent effect | 5.09 | – | – | – | COc1ccc([C@@H]2CC(=O)c3c(O)c4c(c(CC=C(C)C)c3O2)OC(C)(C)C=C4)c(O)c1 [KHONKLONGINOL H]
4 | 6.07 | 5.13 | 5.75 | Dose-dependent effect | 5.42 | – | – | – | CC(C)=CCc1c2c(c(O)c3c1O[C@H](c1ccc(O)cc1O)CC3=O)C=CC(C)(C)O2 [FLEMICHIN D]
5 | 5.03 | 4.49 | 4.74 | Dose-dependent effect | 4.88 | – | – | – | COc1ccc(CCC(=O)c2ccc3c(c2O)CC(O)C(C)(C)O3)cc1 (centres undefined)
6 | 6.32 | 4.71 | 6.00 | Dose-dependent effect | 5.09 | 10 | Active | tde | COc1ccc(CCC(=O)c2c(O)c(CC=C(C)C)c3c(c2O)CC(O)C(C)(C)O3)cc1 (centres undefined)
